ChEMBL document CHEMBL5046322, “Discovery of SHR2415, a Novel Pyrrole-Fused Urea Scaffold ERK1/2 Inhibitor” (ACS Med Chem Lett, 2022)
pIC50: −log10 of the molar value.

What was measured:
[1] = test system: COLO 205; test: Antiproliferative activity against human COLO 205 cells assessed as reduction in cell viability for 72 hrs by cell titre glo luminescence assay; type: functional, cell-based; settings: for IC50: colo 205; for pIC50: Homo sapiens, COLO 205, 72 h, read-out: IC50
[2] = molecular target: Mitogen-activated protein kinase 1 (Homo sapiens, UniProt P28482); test: Inhibition of ERK2 (unknown origin) measured after 2 hr by ADP-glo assay
Chain of Mitogen-activated protein kinase 1 (P28482 whole entry): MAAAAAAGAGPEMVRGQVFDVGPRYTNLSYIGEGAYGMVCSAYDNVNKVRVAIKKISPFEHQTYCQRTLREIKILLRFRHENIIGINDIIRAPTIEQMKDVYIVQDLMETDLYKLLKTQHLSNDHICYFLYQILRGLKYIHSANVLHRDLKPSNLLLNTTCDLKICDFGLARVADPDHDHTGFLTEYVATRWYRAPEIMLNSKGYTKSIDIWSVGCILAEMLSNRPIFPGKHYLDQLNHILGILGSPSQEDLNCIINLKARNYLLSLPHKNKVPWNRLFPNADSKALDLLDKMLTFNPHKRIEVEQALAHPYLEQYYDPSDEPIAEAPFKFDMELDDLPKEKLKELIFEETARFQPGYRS

SMILES	IC50 [1]	pIC50 [2]	pIC50 [1]
Cc1cnc(Nc2ccnn2C)nc1-c1cn2c(c1F)CN([C@H](CO)c1cccc(Cl)c1)C2=O	Not Active	6.89	
Cn1nccc1Nc1nccc(N2CCN(C(CO)c3cccc(Cl)c3)C(=O)C2)n1 (racemic)		6.62	< 5.00
CC(C)Nc1cc(-c2cc3n(c2)C(=O)N([C@H](CO)c2cccc(Cl)c2)C3)c(Cl)cn1	Not Active	6.63	
Cc1cnc(NC(C)C)nc1-c1cc2n(c1)C(=O)N([C@H](CO)c1cccc(Cl)c1)C2	Not Active	6.73	
Cc1cnc(Nc2ccnn2C)nc1-c1cc2n(c1)C(=O)N([C@H](C)c1cccc(Cl)c1)C2	Not Active		
C[C@H](CO)Nc1ncc(Cl)c(-c2cc3n(c2)C(=O)N([C@H](CO)c2cccc(Cl)c2)C3)n1	Not Active		
Cc1cnc(Nc2ccnn2C)nc1-c1cc2n(c1)C(=O)N(Cc1ccc(F)c(F)c1)C2			6.53
C[C@@H](CO)Nc1ncc(Cl)c(-c2cc3n(c2)C(=O)N([C@H](CO)c2cccc(Cl)c2)C3)n1			7.09
Cc1cnc(Nc2ccnn2C)nc1-c1cc2n(c1)C(=O)N([C@H](CO)c1ccc(Cl)c(F)c1)C2		8.32	7.04
Cc1cnc(Nc2ccnn2C)nc1N1Cc2cn(C(CO)c3cccc(Cl)c3)nc2C1 (racemic)		7.84	6.61
Cc1cnc(Nc2ccnn2C)nc1-c1cc2n(c1)C(=O)N([C@H](CO)c1ccc(F)c(Cl)c1)C2		8.02	7.02
Cc1cnc(Nc2ccnn2C)nc1-c1ccc2c(c1)CCN([C@H](CO)c1cccc(Cl)c1)C2=O		8.04	6.07
